Patent US20230219963A1, “PYRROLO[2,3-D]PYRIMIDINE DERIVATIVES” (Pfizer Inc., priority 2020, published 2023)

Legend:
Type in all cases: cell-based
IL-13 induced pSTAT6 = test: IL-13-induced pSTAT6 in human keratinocytes; conditions: Keratinocyte, JAK1/JAK2, read-out: IL-13 induced pSTAT6, cellular potency IC50
Protocol: (§1) Human whole blood was collected from healthy donors via vein puncture into Vacutainer collection tubes containing sodium heparin in accordance with Pfizer protocols (Protocol No. GOHW RDP-01) approved by the Shulman Institutional Review Board. Blood was warmed to 37° C. priorto use. Human whole blood was aliquoted (90 μL/well) in 96-well, deep-well, V-bottom plates and treated with compounds (5 μL/well) at different concentrations up to 60 μM (0.2% DMSO final) at 37° C. for 60 minutes. This was followed by a challenge with IFNα (5000 U/mL), IFNγ (100 ng/mL), IL-6 (50 ng/mL), IL-10 (30 ng/mL), IL-12 (30 ng/mL), IL-15 (30 ng/mL), IL-21 (50 ng/mL), IL-23 (25 ng/mL), IL-27 (1000 ng/mL), EPO (2 U/mL), TSLP (50 ng/mL) or PBS and incubated for 15 minutes. Anti-cell surface antibodies were added 15 minutes prior to cytokine stimulation; anti-CD3-BV421 (0.5 μL/well) to IL-6-treated and TSLP-treated samples and anti-CD14-BV421 (0.5 μL/well) to IFNγ-treated samples. Samples were treated with warm 1×Lyse/Fix buffer (700 μL/well) to terminate activation and further incubated at 37° C. for 20 minutes to lyse red blood cells. Plates were centrifuged at 300×g for 5 minutes, supernatant was aspirated, and cells were washed with 800 μL/well of staining buffer (D-PBS containing 0.1% FBS and 0.01% sodium azide). Washed cell pellets were resuspended in 350 μL/well of prechilled 90% methanol and incubated at 4° C. for 30 minutes. After the removal of 90% methanol, cells were washed once with staining buffer. […]
(§2) After overnight incubation at 4° C., anti-pSTAT stained samples were transferred into 96-well polypropylene U-bottom plates and flow cytometric analysis was performed on a LSR Fortessa™ equipped with a HTS plate loader. […] Background fluorescence was defined using unstimulated cells and a gate was placed at the foot of the peak to include ˜0.5% gated population. […]

TSLP induced pSTAT5 = test: TSLP-induced pSTAT5 in human whole blood (CD3+ cells); conditions: JAK1/JAK2, read-out: TSLP induced pSTAT5, cellular potency IC50
Protocol: as §1, §2

IL-22 induced pSTAT3 = test: IL-22-induced pSTAT3 in human keratinocytes; conditions: Keratinocyte, JAK1/TYK2, read-out: IL-22 induced pSTAT3, cellular potency IC50
IL-31 induced pSTAT3 = test: IL-31-induced pSTAT3 in IFNγ-primed THP-1 cells; conditions: Homo sapiens, JAK1/JAK2, read-out: IL-31 induced pSTAT3, cellular potency IC50
Protocol: THP-1 cells were maintained in RPMI 1640 medium containing 10% FBS, 50 μM 2 mercaptoethanol, 50 U/mL penicillin, 50 µg/mL streptomycin and 2 mM L-glutamine. THP 1 cells were treated with IFNγ (20 ng/mL) for 18 hours. IFNγ primed THP-1 cells were resuspended in fresh RPMI 1640 medium, treated with compounds (0.0003 to 20 μM) for 60 minutes, followed by stimulation with IL-31 (1 μg/mL) for additional 10 minutes. Cells were then fixed by 2% paraformaldehyde and permeabilized by 90% methanol. Fixed and permeabilized cells were stained with AlexaFluor647™ labeled anti-pSTAT3 antibody (1 to 150 dilution).
After overnight incubation at 4° C., anti-pSTAT stained samples were transferred into 96-well polypropylene U-bottom plates and flow cytometric analysis was performed on a LSR Fortessa™ equipped with a HTS plate loader. For human whole blood samples, lymphocyte population was gated for pSTAT histogram analysis for IFNα, IL-10, IL-12, IL-15, IL-21, IL-23, and IL-27-treated samples; CD14^+ cells for IFNγ-treated samples; CD3^+ cells for IL-6 and TSLP-treated samples; all events (entire populations) for EPO-treated samples. Entire populations of keratinocytes and THP-1 cells were gated for the IL-4, IL-13, IL-22 and IL-31 assays. Background fluorescence was defined using unstimulated cells and a gate was placed at the foot of the peak to include ˜0.5% gated population. Histogram statistical analysis was performed using FACSDiva version 8.0. Relative fluorescence unit, which measures the level of pSTAT, was calculated by multiplying the percent positive population and its mean fluorescence. Inhibition curves and half maximal inhibitory concentration (IC50) values were determined using Prism™ software (Version 8) or the Activity Base data analysis software (ID Business Solutions).

IL-23 induced pSTAT3 = test: IL-23-induced pSTAT3 in human whole blood (lymphocytes); conditions: Lymphocyte, JAK2/TYK2, read-out: IL-23 induced pSTAT3, cellular potency IC50
Protocol: as §1, with “buffer. All samples were finally suspended in 150 μL/well of the desired anti-phospho-STAT antibodies at 1:150 dilution in staining buffer; anti-pSTAT1-AF647 in IFNγ treated samples; anti-pSTAT1-AF488 and anti-pSTAT3-AF647 in IL-6-treated samples, anti-pSTAT3-AF647 in IFNα, IL-10, IL-21, IL-23 and IL-27 treated samples, anti-pSTAT4-AF647 in IL-12 treated samples, anti-pSTAT5-AF-647 in EPO, IL-15 and TSLP-treated samples. Human primary keratinocytes were cultured in DermaLife™ medium with supplement kit to expand cell population. Cell passages 2 to 5 were used in the assays. Cells were harvested at ˜80% confluence, suspended in warm DermaLife™ medium, aliquoted (90 μL/well) in 96-well, deep-well, V-bottom plates, and incubated at 37° C. for 30 minutes. Cells were then treated with compounds (0.0003 to 20 μM) for 60 minutes and followed by stimulation with IL-4 (2 ng/mL) or IL-13 (20 ng/mL) at 37° C. for 15 minutes.” for “buffer.”
as §2

IL-21 induced pSTAT3 = test: IL-21-induced pSTAT3 in human whole blood (lymphocytes); conditions: Lymphocyte, JAK1/JAK3, read-out: IL-21 induced pSTAT3, cellular potency IC50
Protocol: as §1, with “buffer. All samples were finally suspended in 150 μL/well of the desired anti-phospho-STAT antibodies at 1:150 dilution in staining buffer; anti-pSTAT1-AF647 in IFNγ treated samples; anti-pSTAT1-AF488 and anti-pSTAT3-AF647 in IL-6-treated samples, anti-pSTAT3-AF647 in IFNα, IL-10, IL-21, IL-23 and IL-27 treated samples, anti-pSTAT4-AF647 in IL-12 treated samples, anti-pSTAT5-AF-647 in EPO, IL-15 and TSLP-treated samples. Human primary keratinocytes were cultured in DermaLife™ medium with supplement kit to expand cell population. Cell passages 2 to 5 were used in the assays. Cells were harvested at ˜80% confluence, suspended in warm DermaLife™ medium, aliquoted (90 μL/well) in 96-well, deep-well, V-bottom plates, and incubated at 37° C. for 30 minutes. Cells were then treated with compounds (0.0003 to 20 μM) for 60 minutes and followed by stimulation with IL-4 (2 ng/mL) or IL-13 (20 ng/mL) at 37° C. for 15 minutes.” for “buffer.”
as §2

Compound: CCCS(=O)(=O)N[C@H]1C[C@@H](N(C)c2ncnc3[nH]ccc23)C1 [Abrocitinib, N-((1S,3S)-3-(Methyl(7H-pyrrolo[2,3-d]pyrimidin-4-yl)amino)cyclo-butyl)propane-1-sulfonamide, reference compound]
- IC50 (IL-13 induced pSTAT6): 81.9 nM
- IC50 (TSLP induced pSTAT5): 1020 nM
- IC50 (IL-22 induced pSTAT3): 420 nM
- IC50 (IL-31 induced pSTAT3): 40 nM
- IC50 (IL-23 induced pSTAT3): > 16500 nM
- IC50 (IL-21 induced pSTAT3): 516 nM
